Columns and labels:
Brevundimonas diminuta [1] = assay: Antimicrobial activity against Brevundimonas diminuta at 20 ug/ml after 24 hr by disk diffusion method relative to ampicillin; format: functional
[2] = Acute toxicity in Rattus norvegicus (rat); format: organism-based; details: in vivo
Bacillus subtilis [3] = assay: Antimicrobial activity against Bacillus subtilis at 20 ug/ml after 24 hr by disk diffusion method; format: functional; details: read-out: IZ
Priestia megaterium [4] = assay: Antimicrobial activity against Bacillus megaterium at 20 ug/ml after 24 hr by disk diffusion method; format: functional; details: read-out: IZ
Escherichia coli [5] = assay: Antimicrobial activity against Escherichia coli at 20 ug/ml after 24 hr by disk diffusion method; format: functional; details: read-out: IZ
Brevundimonas diminuta [6] = assay: Antimicrobial activity against Brevundimonas diminuta at 20 ug/ml after 24 hr by disk diffusion method; format: functional; details: read-out: IZ
Bacillus subtilis [7] = assay: Antimicrobial activity against Bacillus subtilis at 20 ug/ml after 24 hr by disk diffusion method relative to ampicillin; format: functional
Priestia megaterium [8] = assay: Antimicrobial activity against Bacillus megaterium at 20 ug/ml after 24 hr by disk diffusion method relative to ampicillin; format: functional
Escherichia coli [9] = assay: Antimicrobial activity against Escherichia coli at 20 ug/ml after 24 hr by disk diffusion method relative to ampicillin; format: functional

Oc1cccc(N2C(c3ccccc3)C23C(c2ccccc2)=Nc2ccccc23)c1 (stereo not drawn)
Ratio (Brevundimonas diminuta [1]): 174.1 | LD50 [2]: 5080 mg/kg | zone of inhibition at 20 µg/mL (Bacillus subtilis [3]): 11.5 mm | zone of inhibition at 20 µg/mL (Priestia megaterium [4]): 10.5 mm | zone of inhibition at 20 µg/mL (Escherichia coli [5]): 10.5 mm | zone of inhibition at 20 µg/mL (Brevundimonas diminuta [6]): 15.7 mm | Ratio (Bacillus subtilis [7]): 123.7 | Ratio (Priestia megaterium [8]): 89 | Ratio (Escherichia coli [9]): 100

Clc1cccc(N2C(c3ccccc3)C23C(c2ccccc2)=Nc2ccccc23)c1 (stereo not drawn)
Ratio (Brevundimonas diminuta [1]): 207.4 | LD50 [2]: 4380 mg/kg | zone of inhibition at 20 µg/mL (Bacillus subtilis [3]): 15.5 mm | zone of inhibition at 20 µg/mL (Priestia megaterium [4]): 14.3 mm | zone of inhibition at 20 µg/mL (Escherichia coli [5]): 15.8 mm | zone of inhibition at 20 µg/mL (Brevundimonas diminuta [6]): 18.7 mm | Ratio (Bacillus subtilis [7]): 166.7 | Ratio (Priestia megaterium [8]): 121.5 | Ratio (Escherichia coli [9]): 150.8

O=[N+]([O-])c1ccc(N2C(c3ccccc3)C23C(c2ccccc2)=Nc2ccccc23)cc1 (stereo not drawn)
Ratio (Brevundimonas diminuta [1]): 127.8 | LD50 [2]: 5380 mg/kg | zone of inhibition at 20 µg/mL (Bacillus subtilis [3]): 8.3 mm | zone of inhibition at 20 µg/mL (Priestia megaterium [4]): 8.7 mm | zone of inhibition at 20 µg/mL (Escherichia coli [5]): 8.8 mm | zone of inhibition at 20 µg/mL (Brevundimonas diminuta [6]): 11.5 mm | Ratio (Bacillus subtilis [7]): 89.6 | Ratio (Priestia megaterium [8]): 73.4 | Ratio (Escherichia coli [9]): 84.1

Oc1ccc(N2C(c3ccccc3)C23C(c2ccccc2)=Nc2ccccc23)cc1 (stereo not drawn)
Ratio (Brevundimonas diminuta [1]): 85.2 | LD50 [2]: 4480 mg/kg | zone of inhibition at 20 µg/mL (Bacillus subtilis [3]): 5.5 mm | zone of inhibition at 20 µg/mL (Priestia megaterium [4]): 5.5 mm | zone of inhibition at 20 µg/mL (Escherichia coli [5]): 6 mm | zone of inhibition at 20 µg/mL (Brevundimonas diminuta [6]): 7.7 mm | Ratio (Bacillus subtilis [7]): 59.1 | Ratio (Priestia megaterium [8]): 46.6 | Ratio (Escherichia coli [9]): 57.1

O=C(O)c1ccccc1N1C(c2ccccc2)C12C(c1ccccc1)=Nc1ccccc12 (stereo not drawn)
Ratio (Brevundimonas diminuta [1]): 64.8 | LD50 [2]: 3840 mg/kg | zone of inhibition at 20 µg/mL (Bacillus subtilis [3]): 3.3 mm | zone of inhibition at 20 µg/mL (Priestia megaterium [4]): 4.3 mm | zone of inhibition at 20 µg/mL (Escherichia coli [5]): 4.2 mm | zone of inhibition at 20 µg/mL (Brevundimonas diminuta [6]): 5.8 mm | Ratio (Bacillus subtilis [7]): 35.8 | Ratio (Priestia megaterium [8]): 36.7 | Ratio (Escherichia coli [9]): 39.7

COc1ccccc1N1C(c2ccccc2)C12C(c1ccccc1)=Nc1ccccc12 (stereo not drawn)
Ratio (Brevundimonas diminuta [1]): 266.7 | LD50 [2]: 5150 mg/kg | zone of inhibition at 20 µg/mL (Bacillus subtilis [3]): 23 mm | zone of inhibition at 20 µg/mL (Priestia megaterium [4]): 18.7 mm | zone of inhibition at 20 µg/mL (Escherichia coli [5]): 21.2 mm | zone of inhibition at 20 µg/mL (Brevundimonas diminuta [6]): 24 mm | Ratio (Bacillus subtilis [7]): 247.3 | Ratio (Priestia megaterium [8]): 158.2 | Ratio (Escherichia coli [9]): 201.6

Clc1ccc(N2C(c3ccccc3)C23C(c2ccccc2)=Nc2ccccc23)cc1 (stereo not drawn)
Ratio (Brevundimonas diminuta [1]): 118.5 | LD50 [2]: 4240 mg/kg | zone of inhibition at 20 µg/mL (Bacillus subtilis [3]): 7.3 mm | zone of inhibition at 20 µg/mL (Priestia megaterium [4]): 6.8 mm | zone of inhibition at 20 µg/mL (Escherichia coli [5]): 7.7 mm | zone of inhibition at 20 µg/mL (Brevundimonas diminuta [6]): 10.7 mm | Ratio (Bacillus subtilis [7]): 78.6 | Ratio (Priestia megaterium [8]): 57.9 | Ratio (Escherichia coli [9]): 73

Clc1ccccc1N1C(c2ccccc2)C12C(c1ccccc1)=Nc1ccccc12 (stereo not drawn)
Ratio (Brevundimonas diminuta [1]): 222.2 | LD50 [2]: 4040 mg/kg | zone of inhibition at 20 µg/mL (Bacillus subtilis [3]): 16.3 mm | zone of inhibition at 20 µg/mL (Priestia megaterium [4]): 15.5 mm | zone of inhibition at 20 µg/mL (Escherichia coli [5]): 17 mm | zone of inhibition at 20 µg/mL (Brevundimonas diminuta [6]): 20 mm | Ratio (Bacillus subtilis [7]): 175.6 | Ratio (Priestia megaterium [8]): 131.4 | Ratio (Escherichia coli [9]): 161.9

c1ccc(C2=Nc3ccccc3C23C(c2ccccc2)N3c2ccccc2)cc1 (stereo not drawn)
Ratio (Brevundimonas diminuta [1]): 148.1 | LD50 [2]: 4240 mg/kg | zone of inhibition at 20 µg/mL (Bacillus subtilis [3]): 10.2 mm | zone of inhibition at 20 µg/mL (Priestia megaterium [4]): 9.8 mm | zone of inhibition at 20 µg/mL (Escherichia coli [5]): 9.5 mm | zone of inhibition at 20 µg/mL (Brevundimonas diminuta [6]): 13.3 mm | Ratio (Bacillus subtilis [7]): 109.3 | Ratio (Priestia megaterium [8]): 83.3 | Ratio (Escherichia coli [9]): 90.5

Cc1cccc(N2C(c3ccccc3)C23C(c2ccccc2)=Nc2ccccc23)c1 (stereo not drawn)
Ratio (Brevundimonas diminuta [1]): 192.6 | LD50 [2]: 3840 mg/kg | zone of inhibition at 20 µg/mL (Bacillus subtilis [3]): 14.5 mm | zone of inhibition at 20 µg/mL (Priestia megaterium [4]): 13.5 mm | zone of inhibition at 20 µg/mL (Escherichia coli [5]): 13.5 mm | zone of inhibition at 20 µg/mL (Brevundimonas diminuta [6]): 17.3 mm | Ratio (Bacillus subtilis [7]): 155.9 | Ratio (Priestia megaterium [8]): 114.4 | Ratio (Escherichia coli [9]): 128.6

CC1(C)S[C@@H]2[C@H](NC(=O)[C@H](N)c3ccccc3)C(=O)N2[C@H]1C(=O)O [AMPICILLIN]
zone of inhibition at 20 µg/mL (Bacillus subtilis [3]): 9.3 mm | zone of inhibition at 20 µg/mL (Priestia megaterium [4]): 11.8 mm | zone of inhibition at 20 µg/mL (Escherichia coli [5]): 10.5 mm | zone of inhibition at 20 µg/mL (Brevundimonas diminuta [6]): 9 mm

CCOc1ccccc1N1C(c2ccccc2)C12C(c1ccccc1)=Nc1ccccc12 (stereo not drawn)
Ratio (Brevundimonas diminuta [1]): 303.7 | LD50 [2]: 4820 mg/kg | zone of inhibition at 20 µg/mL (Bacillus subtilis [3]): 25.7 mm | zone of inhibition at 20 µg/mL (Priestia megaterium [4]): 22.2 mm | zone of inhibition at 20 µg/mL (Escherichia coli [5]): 25 mm | zone of inhibition at 20 µg/mL (Brevundimonas diminuta [6]): 27.3 mm | Ratio (Bacillus subtilis [7]): 276 | Ratio (Priestia megaterium [8]): 187.9 | Ratio (Escherichia coli [9]): 238.1

Oc1ccccc1N1C(c2ccccc2)C12C(c1ccccc1)=Nc1ccccc12 (stereo not drawn)
Ratio (Brevundimonas diminuta [1]): 188.9 | LD50 [2]: 4360 mg/kg | zone of inhibition at 20 µg/mL (Bacillus subtilis [3]): 12.7 mm | zone of inhibition at 20 µg/mL (Priestia megaterium [4]): 12.7 mm | zone of inhibition at 20 µg/mL (Escherichia coli [5]): 11.3 mm | zone of inhibition at 20 µg/mL (Brevundimonas diminuta [6]): 17 mm | Ratio (Bacillus subtilis [7]): 136.2 | Ratio (Priestia megaterium [8]): 107.3 | Ratio (Escherichia coli [9]): 107.9

O=[N+]([O-])c1cccc(N2C(c3ccccc3)C23C(c2ccccc2)=Nc2ccccc23)c1 (stereo not drawn)
Ratio (Brevundimonas diminuta [1]): 229.6 | LD50 [2]: 4500 mg/kg | zone of inhibition at 20 µg/mL (Bacillus subtilis [3]): 17.2 mm | zone of inhibition at 20 µg/mL (Priestia megaterium [4]): 16.8 mm | zone of inhibition at 20 µg/mL (Escherichia coli [5]): 17.7 mm | zone of inhibition at 20 µg/mL (Brevundimonas diminuta [6]): 20.7 mm | Ratio (Bacillus subtilis [7]): 184.6 | Ratio (Priestia megaterium [8]): 142.7 | Ratio (Escherichia coli [9]): 168.3

CCOc1cccc(N2C(c3ccccc3)C23C(c2ccccc2)=Nc2ccccc23)c1 (stereo not drawn)
Ratio (Brevundimonas diminuta [1]): 288.9 | LD50 [2]: 4640 mg/kg | zone of inhibition at 20 µg/mL (Bacillus subtilis [3]): 24.5 mm | zone of inhibition at 20 µg/mL (Priestia megaterium [4]): 20.8 mm | zone of inhibition at 20 µg/mL (Escherichia coli [5]): 24.3 mm | zone of inhibition at 20 µg/mL (Brevundimonas diminuta [6]): 26 mm | Ratio (Bacillus subtilis [7]): 263.4 | Ratio (Priestia megaterium [8]): 176.6 | Ratio (Escherichia coli [9]): 231.7

O=[N+]([O-])c1ccccc1N1C(c2ccccc2)C12C(c1ccccc1)=Nc1ccccc12 (stereo not drawn)
Ratio (Brevundimonas diminuta [1]): 244.4 | LD50 [2]: 3560 mg/kg | zone of inhibition at 20 µg/mL (Bacillus subtilis [3]): 19.3 mm | zone of inhibition at 20 µg/mL (Priestia megaterium [4]): 17.8 mm | zone of inhibition at 20 µg/mL (Escherichia coli [5]): 18.3 mm | zone of inhibition at 20 µg/mL (Brevundimonas diminuta [6]): 22 mm | Ratio (Bacillus subtilis [7]): 207.9 | Ratio (Priestia megaterium [8]): 151.1 | Ratio (Escherichia coli [9]): 174.6

COc1cccc(N2C(c3ccccc3)C23C(c2ccccc2)=Nc2ccccc23)c1 (stereo not drawn)
Ratio (Brevundimonas diminuta [1]): 253.7 | LD50 [2]: 5120 mg/kg | zone of inhibition at 20 µg/mL (Bacillus subtilis [3]): 21.5 mm | zone of inhibition at 20 µg/mL (Priestia megaterium [4]): 17.7 mm | zone of inhibition at 20 µg/mL (Escherichia coli [5]): 20.8 mm | zone of inhibition at 20 µg/mL (Brevundimonas diminuta [6]): 22.8 mm | Ratio (Bacillus subtilis [7]): 231.2 | Ratio (Priestia megaterium [8]): 149.7 | Ratio (Escherichia coli [9]): 198.4
